Test results from patent US20100004221A1, “THIAZEPINE DERIVATIVE” (DAIICHI SANKYO COMPANY, LIMITED, priority 2006, published 2010).

Biological target: T1, human 11β-HSD1 (Homo sapiens, UniProt P28845)
T1 construct: cDNA coding for a full-length of human 11β-HSD1 in a mammal cell expression vector pCIneo; made in house; host or cells: HEK293 cells (transient transfection with pCIneo plasmid); microsome fraction used as enzyme source
Assay: 11β-HSD1 enzyme inhibition experiment
Type: biochemical
Details: test compound at 39 nM; microsome fraction of HEK293 cells expressing human 11β-HSD1; cortisone 160 nM, room temperature, 3 h; read-out: inhibiting effects on cortisol production dependent on the 11β-HSD1 expressing cells
Procedure: A plasmid obtained by incorporating cDNA coding for a full-length of human 11β-HSD1 in a mammal cell expression vector pCIneo (Promega Corporation) was introduced into HEK293 cells using Lipofectamine Plus Reagent (Invitrogen Corporation) according to the package insert. 48 h later, cells were collected and frozen at −80° C. Cells into which the pCIneo vector was introduced were prepared as a control. Cells were thawed and suspended in 20 mM HEPES, 1 mM ethylenediamine tetraacetic acid, 2 mM magnesium chloride (final concentrations), and a buffer containing a protease inhibitor cocktail (Roche), and 4.1 Mpa pressure was applied by N2 cavitation on the ice for 30 min to disrupt cells. The disrupted cell suspension was centrifuged at 1000×g at 4° C. for 10 min, and a supernatant thereof was recovered. The obtained supernatant was further ultracentrifuged at 105,000×g at 4° C. for 30 min, and the resulting precipitate was suspended in an assay buffer (50 mM tris buffer, 10% glycerol) as a microsome fraction and used as an enzyme source.
A reaction was performed on a 384-well plate (Greiner Bio One) using a reaction volume of 25 μL, and all the samples were diluted with an assay buffer (50 mM tris buffer, pH 7.4, 10% glycerol). 0.8 mM NADPH, 6 mM glucose 6-phosphate, 0.35 units/mL glucose 6-phosphate dehydrogenase (Sigma Chemical), and 3 mM magnesium chloride and a microsome fraction having a protein amount of 0.7 μg per well (final concentrations) were added to the plate, and a solution containing a test compound dissolved in dimethyl sulfoxide was added at a final concentration of 0.1% and preincubated at room temperature for 15 min. After completion of preincubation, cortisone at a final concentration of 160 nM was added to start a reaction, and the reaction was performed at room temperature for 3 h. 25 μL of 100 mM carbenoxolone (Sigma Chemical) was added to terminate the reaction, and the amount of produced cortisol was measured with Discovery (Hewlett-Packard Company) using a cortisol prototype kit (Cisbio International) according to the package insert.

T1 sequence (P28845 whole entry): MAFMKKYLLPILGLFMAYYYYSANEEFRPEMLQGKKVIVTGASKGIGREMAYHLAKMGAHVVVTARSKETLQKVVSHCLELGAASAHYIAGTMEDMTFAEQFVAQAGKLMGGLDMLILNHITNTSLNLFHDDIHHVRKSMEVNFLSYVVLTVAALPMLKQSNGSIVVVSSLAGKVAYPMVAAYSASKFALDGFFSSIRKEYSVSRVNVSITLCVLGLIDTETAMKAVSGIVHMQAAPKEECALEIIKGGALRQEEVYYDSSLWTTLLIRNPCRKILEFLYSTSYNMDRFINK

First: CC1(C2CC2)Cc2nnc(-c3ccccc3Cl)n2CCS1 (stereo not drawn) [Example 52, 3-(2-Chlorophenyl)-8-cyclopropyl-8-methyl-5,6,8,9-tetrahydro[1,2,4]triazolo[4,3-d][1,4]thiazepine]
Second: CC1(CO)Cc2nnc(-c3ccc(-c4ccc(F)cc4)cc3Cl)n2CCS1 (stereo not drawn) [Example 1, [3-(3-Chloro-4′-fluorobiphenyl-4-yl)-8-methyl-5,6,8,9-tetrahydro[1,2,4]triazolo[4,3-d][1,4]thiazepin-8-yl]methanol]
The inhibition at 0.039 µM of the first is higher: 89% for the first, 71.8% for the second.

Going from `Cc1c(-c2nnc3n2CCSC(C)(CO)C3)sc2ccc(Cl)cc12` (stereo not drawn) [Example 8, [3-(5-Chloro-3-methyl-1-benzothiophen-2-yl)-8-methyl-5,6,8,9-tetrahydro[1,2,4]triazolo[4,3-d][1,4]thiazepin-8-yl]methanol] to `COc1cc(-c2ccc(F)c(Cl)c2)ccc1-c1nnc2n1CCSC(C)(CO)C2` (stereo not drawn) [Example 32, [3-(3′-Chloro-4′-fluoro-3-methoxybiphenyl-4-yl)-8-methyl-5,6,8,9-tetrahydro[1,2,4]triazolo[4,3-d][1,4]thiazepin-8-yl]methanol], the inhibition at 0.039 µM falls from 67.1% to 35.8%.

Tested on: not given
Assay: not given
Details: not given

Compared with `CC1(CO)Cc2nnc(-c3ccc(-c4ccc(F)cc4)cc3Cl)n2CCS1` (stereo not drawn) [Example 1, [3-(3-Chloro-4′-fluorobiphenyl-4-yl)-8-methyl-5,6,8,9-tetrahydro[1,2,4]triazolo[4,3-d][1,4]thiazepin-8-yl]methanol], `CC1(CO)Cc2nnc(-c3cc(-c4ccc(F)cc4)ccc3Cl)n2CCS1` (stereo not drawn) [Example 34, [3-(4-Chloro-4′-fluorobiphenyl-3-yl)-8-methyl-5,6,8,9-tetrahydro[1,2,4]triazolo[4,3-d][1,4]thiazepin-8-yl]methanol] is lower in melting point: 190 to 193 °C for the first, 165 to 168 °C for the second.

Compared with `COc1cc(-c2ccc(F)c(Cl)c2)ccc1-c1nnc2n1CCSC(C)(CO)C2` (stereo not drawn) [Example 32, [3-(3′-Chloro-4′-fluoro-3-methoxybiphenyl-4-yl)-8-methyl-5,6,8,9-tetrahydro[1,2,4]triazolo[4,3-d][1,4]thiazepin-8-yl]methanol], `COc1cc(-c2cccc(C#N)c2)ccc1-c1nnc2n1CCSC(C)(CO)C2` (stereo not drawn) [Example 25, 4′-[8-(Hydroxymethyl)-8-methyl-5,6,8,9-tetrahydro[1,2,4]triazolo[4,3-d][1,4]thiazepin-3-yl]-3′-methoxybiphenyl-3-carbonitrile] is lower in melting point: 238 to 241 °C for the first, 232 to 236 °C for the second.

Compared with `CC1(CO)Cc2nnc(-c3ccc(-c4cccc(C(F)(F)F)c4)cc3Cl)n2CCS1` (stereo not drawn) [Example 17, [3-(3-Chloro-3′-trifluoromethylbiphenyl-4-yl)-8-methyl-5,6,8,9-tetrahydro[1,2,4]triazolo[4,3-d][1,4]thiazepin-8-yl]methanol], `CC1(CO)Cc2nnc(-c3ccc(-c4ccccc4F)cc3Cl)n2CCS1` (stereo not drawn) [Example 13, [3-(3-Chloro-2′-fluorobiphenyl-4-yl)-8-methyl-5,6,8,9-tetrahydro[1,2,4]triazolo[4,3-d][1,4]thiazepin-8-yl]methanol] is lower in melting point: 195 to 198 °C for the first, 147 to 149 °C for the second.

First: COc1ccccc1-c1nnc2n1CCSC(C)(C)C2 [Example 47, 8,8-Dimethyl-3-(2-methoxyphenyl)-5,6,8,9-tetrahydro[1,2,4]triazolo[4,3-d][1,4]thiazepine]
Second: CC1(CO)Cc2nnc(-c3ccc(-c4cccc(Cl)c4F)cc3Cl)n2CCS1 (stereo not drawn) [Example 28, [3-(3,3′-Dichloro-2′-fluorobiphenyl-4-yl)-8-methyl-5,6,8,9-tetrahydro[1,2,4]triazolo[4,3-d][1,4]thiazepin-8-yl]methanol]
The melting point of the first is lower: 141 to 143 °C for the first, 156 to 160 °C for the second.
